This test has as its target JAK1 (Homo sapiens (Human), UniProt P23458). Nature of the test: Analysis of JAK1 activity inhibition ability (ADP-Glo Kinase Assay). As to conditions: JAK1 enzyme, ADP-Glo luminescence, ATP 250 uM, IRS-itide substrate, 30° C. 40 minutes; read-out: IC50. The test is classed as biochemical. The method, then: Test Example 1: Analysis of JAK1 Activity Inhibition Ability of Compound of Formula 1 (ADP-Glo™ Kinase Assay)
A JAK inhibition ability of a compound according to the present invention was identified as follows.
A control material and a test material were prepared for each concentration, in such a way that they were diluted by means of DMSO. At the same time, ATP (250 uM) and JAK substrate (JAK1, IRS-itide 40 ng/mL) were prepared, in such a way that they were diluted by means of kinase buffer (40 mM Tris-HCl pH 7.5, 20 mM MgCl2, 0.5 mg/mL BSA, 50 uM DTT).
A test drug for each concentration, substrate, ATP and JAK enzyme were mixed in an eppendorf tube, and reacted in a 30° C. incubator for 40 minutes.
ADP-Glo™ reagent contained in ADP-Glo™ Kinase Enzyme System (Promega, USA, V9571) was added into each eppendorf tube, and reacted in a 30° C. incubator for 40 minutes. A kinase detection reagent contained in ADP-Go™ Kinase Enzyme System was inserted into the eppendorf tube, then an integration time was set to 1 second by using Wallac Victor 2™, then luminescence was measured, and then JAKs phosphorylation inhibition ability of the test material was analyzed. The concentration of the compound, which causes 50% of the JAK enzyme activity inhibition in comparison With the control group, was determined as IC50 (nM) of an inhibitor, wherein the results thereof are shown in a following table 1.

Chain of JAK1 (P23458 whole entry): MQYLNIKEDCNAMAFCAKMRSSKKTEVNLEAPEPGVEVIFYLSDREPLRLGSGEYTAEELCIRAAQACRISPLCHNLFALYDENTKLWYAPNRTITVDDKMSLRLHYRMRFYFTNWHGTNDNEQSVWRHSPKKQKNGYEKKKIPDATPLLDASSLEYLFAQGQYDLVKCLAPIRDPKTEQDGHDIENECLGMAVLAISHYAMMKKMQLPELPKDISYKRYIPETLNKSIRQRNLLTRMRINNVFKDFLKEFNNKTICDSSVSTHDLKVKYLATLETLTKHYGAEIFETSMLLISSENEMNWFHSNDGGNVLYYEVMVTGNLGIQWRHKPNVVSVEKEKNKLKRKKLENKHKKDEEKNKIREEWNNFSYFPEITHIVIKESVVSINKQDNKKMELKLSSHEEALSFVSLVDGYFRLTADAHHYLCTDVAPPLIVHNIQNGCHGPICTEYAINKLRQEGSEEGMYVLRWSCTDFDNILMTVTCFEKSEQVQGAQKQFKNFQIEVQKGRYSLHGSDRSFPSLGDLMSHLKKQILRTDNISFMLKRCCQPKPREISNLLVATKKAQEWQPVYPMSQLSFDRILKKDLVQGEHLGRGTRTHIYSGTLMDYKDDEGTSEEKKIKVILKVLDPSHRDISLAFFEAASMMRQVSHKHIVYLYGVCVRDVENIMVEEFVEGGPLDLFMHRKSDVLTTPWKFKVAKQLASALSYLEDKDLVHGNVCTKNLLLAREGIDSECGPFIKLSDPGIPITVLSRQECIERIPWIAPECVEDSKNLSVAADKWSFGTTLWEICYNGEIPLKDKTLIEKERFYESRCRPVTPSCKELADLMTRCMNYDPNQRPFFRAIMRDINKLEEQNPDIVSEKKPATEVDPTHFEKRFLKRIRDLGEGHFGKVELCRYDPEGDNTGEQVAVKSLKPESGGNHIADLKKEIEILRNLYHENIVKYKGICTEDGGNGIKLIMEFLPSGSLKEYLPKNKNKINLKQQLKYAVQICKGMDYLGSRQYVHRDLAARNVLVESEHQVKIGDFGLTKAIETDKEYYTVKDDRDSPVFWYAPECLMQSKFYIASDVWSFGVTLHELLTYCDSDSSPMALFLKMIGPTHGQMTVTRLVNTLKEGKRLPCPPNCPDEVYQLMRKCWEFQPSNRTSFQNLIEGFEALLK

`N#C[C@H]1CC1C(=O)N1CC=C(c2cc(NC(=O)C3CC3)nc3[nH]ccc23)CC1` (stereo in doubt) [Example 267, N-(4-(1-((1S,2S)-2-cyanocyclopropane-1-carbonyl)-1,2,3,6-tetrahydropyridin-4-yl)-1H-pyrrolo[2,3-b]pyridin-6-yl)cyclopropanecarboxamide]: the IC50 was less than 20 nM.
In the case of `CC1CN(C(=O)CC#N)CC=C1c1cc(NC(=O)C2CC2)nc2[nH]ccc12` (stereo in doubt) [Example 305, (R)—N-(4-(1-(2-cyanoacetyl)-3-methyl-1,2,3,6-tetrahydropyridin-4-yl)-1H-pyrrolo[2,3-b]pyridin-6-yl)cyclopropanecarboxamide], the IC50 is 20 to 200 nM.
Take `CCC1CC(c2cc(NC(=O)C3CC3)nc3[nH]ccc23)=CCN1C(=O)CC#N` (stereo in doubt) [Example 417, (R)—N-(4-(1-(2-cyanoacetyl)-2-ethyl-1,2,3,6-tetrahydropyridin-4-yl)-1H-pyrrolo[2,3-b]pyridin-6-yl)cyclopropanecarboxamide]: the IC50 was less than 20 nM.
As for `CCS(=O)(=O)Nc1ccc(-c2cc(NC(=O)C3CC3)nc3[nH]ccc23)cc1F` [Example 1, N-(4-(4-(ethylsulfonamido)-3-fluorophenyl)-1H-pyrrolo[2,3-b]pyridin-6-yl)cyclopropanecarboxamide], the IC50 is less than 20 nM.
In the case of `O=C(Nc1cc(-c2ccc(NS(=O)(=O)c3ccc(F)c(F)c3)cc2)c2cc[nH]c2n1)C1CC1` [Example 2, N-(4-(4-((3,4-difluorophenyl)sulfonamido)phenyl)-1H-pyrrolo[2,3-b]pyridin-6-yl)cyclopropanecarboxamide], the IC50 is less than 20 nM.
Consider `O=C(Nc1cc(-c2ccc(NS(=O)(=O)CCCF)cc2)c2cc[nH]c2n1)C1CC1` [Example 3, N-(4-(4-((3-fluoropropyl)sulfonamido)phenyl)-1H-pyrrolo[2,3-b]pyridin-6-yl)cyclopropanecarboxamide], for which the IC50 was less than 20 nM.
To `CCS(=O)(=O)Nc1ccc(-c2cc(NC(=O)C3CC3)nc3[nH]ccc23)cc1` [Example 4, N-(4-(4-(ethylsulfonamido)phenyl)-1H-pyrrolo[2,3-b]pyridin-6-yl)cyclopropanecarboxamide] belongs less than 20 nM; to `CCCS(=O)(=O)Nc1ccc(-c2cc(NC(=O)C3CC3)nc3[nH]ccc23)cc1` [Example 5, N-(4-(4-(propylsulfonamido)phenyl)-1H-pyrrolo[2,3-b]pyridin-6-yl)cyclopropanecarboxamide], less than 20 nM; to `CCCCS(=O)(=O)Nc1ccc(-c2cc(NC(=O)C3CC3)nc3[nH]ccc23)cc1` [Example 6, N-(4-(4-(butylsulfonamido)phenyl)-1H-pyrrolo[2,3-b]pyridin-6-yl)cyclopropanecarboxamide], less than 20 nM.
Turning to `O=C(Nc1cc(-c2ccc(NS(=O)(=O)C3CCCCC3)cc2)c2cc[nH]c2n1)C1CC1` [Example 7, N-(4-(4-(cyclohexanesulfonamido)phenyl)-1H-pyrrolo[2,3-b]pyridin-6-yl)cyclopropanecarboxamide], the IC50 was less than 20 nM.
On to `O=C(Nc1cc(-c2ccc(NS(=O)(=O)CCF)cc2)c2cc[nH]c2n1)C1CC1` [Example 8, N-(4-(4-((2-fluoroethyl)sulfonamido)phenyl)-1H-pyrrolo[2,3-b]pyridin-6-yl)cyclopropanecarboxamide], for which the IC50 fell in the range of 20 to 200 nM.
Take `O=C(Nc1cc(-c2ccc(NS(=O)(=O)C3CCS(=O)(=O)CC3)cc2)c2cc[nH]c2n1)C1CC1` [Example 9, N-(4-(4-((1,1-dioxidotetrahydro-2H-thiopyran)-4-sulfonamido)phenyl)-1H-pyrrolo[2,3-b]pyridin-6-yl)cyclopropanecarboxamide]: the IC50 is less than 20 nM.
The same measure for `O=C(Nc1cc(-c2ccc(NS(=O)(=O)C3CCS(=O)(=O)C3)cc2)c2cc[nH]c2n1)C1CC1` (stereo not drawn) [Example 10, N-(4-(4-((1,1-dioxidotetrahydrothiophene)-3-sulfonamido)phenyl)-1H-pyrrolo[2,3-b]pyridin-6-yl)cyclopropanecarboxamide]: less than 20 nM; for `O=C(Nc1cc(-c2ccc(NS(=O)(=O)C3CS(=O)(=O)C3)cc2)c2cc[nH]c2n1)C1CC1` [Example 11, N-(4-(4-((1,1-dioxidothietane)-3-sulfonamido)phenyl)-1H-pyrrolo[2,3-b]pyridin-6-yl)cyclopropanecarboxamide]: less than 20 nM; for `O=C(Nc1cc(-c2ccc(NS(=O)(=O)c3ccc(Cl)nc3)cc2)c2cc[nH]c2n1)C1CC1` [Example 12, N-(4-(4-((6-chloropyridine)-3-sulfonamido)phenyl)-1H-pyrrolo[2,3-b]pyridin-6-yl)cyclopropanecarboxamide]: less than 20 nM.
As for `O=C(Nc1cc(-c2ccc(NS(=O)(=O)c3ccc(F)cc3)cc2)c2cc[nH]c2n1)C1CC1` [Example 13, N-(4-(4-((4-fluorophenyl)sulfonamido)phenyl)-1H-pyrrolo[2,3-b]pyridin-6-yl)cyclopropanecarboxamide], the IC50 was less than 20 nM.
The same measure for `O=C(Nc1cc(-c2ccc(NS(=O)(=O)c3ccc(Cl)cc3)cc2)c2cc[nH]c2n1)C1CC1` [Example 14, N-(4-(4-((4-chlorophenyl)sulfonamido)phenyl)-1H-pyrrolo[2,3-b]pyridin-6-yl)cyclopropanecarboxamide]: less than 20 nM.
Take `Cn1cncc1S(=O)(=O)Nc1ccc(-c2cc(NC(=O)C3CC3)nc3[nH]ccc23)cc1` [Example 15, N-(4-(4-((1-methyl-1H-imidazole)-5-sulfonamido)phenyl)-1H-pyrrolo[2,3-b]pyridin-6-yl)cyclopropanecarboxamide]: the IC50 was 20 to 200 nM.
As to `Cn1cc(S(=O)(=O)Nc2ccc(-c3cc(NC(=O)C4CC4)nc4[nH]ccc34)cc2)cn1` [Example 16, N-(4-(4-((1-methyl-1H-pyrazole)-4-sulfonamido)phenyl)-1H-pyrrolo[2,3-b]pyridin-6-yl)cyclopropanecarboxamide], the IC50 fell in the range of 20 to 200 nM.
For `NC(=O)c1ccc(S(=O)(=O)Nc2ccc(-c3cc(NC(=O)C4CC4)nc4[nH]ccc34)cc2)cc1` [Example 17, 4-(N-(4-(6-(cyclopropanecarboxamido)-1H-pyrrolo[2,3-b]pyridin-4-yl)phenyl)sulfamoyl)benzamide], the IC50 is 20 to 200 nM.
For `CC(=O)N1CCC(S(=O)(=O)Nc2ccc(-c3cc(NC(=O)C4CC4)nc4[nH]ccc34)cc2)CC1` [Example 18, N-(4-(4-((1-acetylpiperidine)-4-sulfonamido)phenyl)-1H-pyrrolo[2,3-b]pyridin-6-yl)cyclopropanecarboxamide], the half-maximal inhibitory concentration (IC50) is 20 to 200 nM.
Regarding `CC(C)Oc1ccc(S(=O)(=O)Nc2ccc(-c3cc(NC(=O)C4CC4)nc4[nH]ccc34)cc2)cc1` [Example 19, N-(4-(4-((4-isopropoxyphenyl)sulfonamido)phenyl)-1H-pyrrolo[2,3-b]pyridin-6-yl)cyclopropanecarboxamide], the IC50 was less than 20 nM.
For `O=C(Nc1cc(-c2ccc(NS(=O)(=O)c3ccc(Br)cc3)cc2)c2cc[nH]c2n1)C1CC1` [Example 20, N-(4-(4-((4-bromophenyl)sulfonamido)phenyl)-1H-pyrrolo[2,3-b]pyridin-6-yl)cyclopropanecarboxamide], the IC50 lay within 20 to 200 nM.
`N#Cc1ccc(S(=O)(=O)Nc2ccc(-c3cc(NC(=O)C4CC4)nc4[nH]ccc34)cc2)cc1` [Example 21, N-(4-(4-((4-cyanophenyl)sulfonamido)phenyl)-1H-pyrrolo[2,3-b]pyridin-6-yl)cyclopropanecarboxamide]: the IC50 lay in the range of 20 to 200 nM.
The same measure for `O=C(Nc1cc(-c2ccc(NS(=O)(=O)c3ccc4c(c3)CCO4)cc2)c2cc[nH]c2n1)C1CC1` [Example 22, N-(4-(4-((2,3-dihydrobenzofuran)-5-sulfonamido)phenyl)-1H-pyrrolo[2,3-b]pyridin-6-yl)cyclopropanecarboxamide]: 20 to 200 nM; for `COc1ccc(S(=O)(=O)Nc2ccc(-c3cc(NC(=O)C4CC4)nc4[nH]ccc34)cc2)cn1` [Example 23, N-(4-(4-((6-methoxypyridine)-3-sulfonamido)phenyl)-1H-pyrrolo[2,3-b]pyridin-6-yl)cyclopropanecarboxamide]: less than 20 nM; for `O=C(Nc1cc(-c2ccc(NS(=O)(=O)c3ccccc3)cc2)c2cc[nH]c2n1)C1CC1` [Example 24, N-(4-(4-(phenylsulfonamido)phenyl)-1H-pyrrolo[2,3-b]pyridin-6-yl)cyclopropanecarboxamide]: less than 20 nM.
In the case of `O=C(Nc1cc(-c2ccc(NS(=O)(=O)c3cccc(F)c3)cc2)c2cc[nH]c2n1)C1CC1` [Example 25, N-(4-(4-((3-fluorophenyl)sulfonamido)phenyl)-1H-pyrrolo[2,3-b]pyridin-6-yl)cyclopropanecarboxamide], the half-maximal inhibitory concentration (IC50) is less than 20 nM.
The same measure for `O=C(Nc1cc(-c2ccc(NS(=O)(=O)c3cccc(Cl)c3)cc2)c2cc[nH]c2n1)C1CC1` [Example 26, N-(4-(4-((3-chlorophenyl)sulfonamido)phenyl)-1H-pyrrolo[2,3-b]pyridin-6-yl)cyclopropanecarboxamide]: 20 to 200 nM.
The same measure for `Cc1ccc(S(=O)(=O)Nc2ccc(-c3cc(NC(=O)C4CC4)nc4[nH]ccc34)cc2)cc1` [Example 27, N-(4-(4-((4-methylphenyl)sulfonamido)phenyl)-1H-pyrrolo[2,3-b]pyridin-6-yl)cyclopropanecarboxamide]: 20 to 200 nM.

Source of the values: US11524968B2, “Heterocyclic compound as a protein kinase inhibitor” (HK inno.N Corporation, priority 2017, dated 2022).
